# Results: patent US20170042151A1, “SAFENED HERBICIDAL COMPOSITIONS COMPRISING PYRIDINE CARBOXYLIC ACIDS” (Dow AgroSciences LLC, priority 2015, published 2017)
# Tests used:
# Assay type in all cases: in vivo
# [1] = tested on: TRZAW = Triticum aestivum (winter wheat); assay: Greenhouse post-emergence phytotoxicity (% visual injury) on wheat
# Protocol: (§1) In addition, the efficacy of the herbicidal composition on wild mustard (SINAR), wild chamomile (MATCH), wild pansy (VIOTR), shepherd's purse ([…]), pigweed (AMARE), and Canada thistle (CIRAR) was evaluated. […] When required to ensure good germination and healthy plants, a fungicide treatment and/or other chemical or physical treatment was applied. The plants were grown for 7-36 days (d) in a greenhouse with an approximate 14-hour (h) photoperiod which was maintained at about 18° C. during the day and 17° C. during the night. Nutrients and water were added on a regular basis and supplemental lighting was provided with overhead metal halide 1000-Watt lamps as necessary. The plants were employed for testing when they reached the second or third true leaf stage. Weighed amounts of technical material were dissolved in a volume of 97:3 volume per volume (v/v) acetone/dimethyl sulfoxide (DMSO) to stock solutions. […] Stock solutions of the safeners were prepared following the same procedure. […] Control plants were sprayed in the same manner with the solvent blank. The treated plants and control plants were placed in a greenhouse as described above and watered by sub-irrigation to prevent wash-off of the test compounds. […] Colby's equation was used to determine the herbicidal effects expected from the mixtures.
# [2] = tested on: HORVS = Hordeum vulgare (spring barley); assay: Greenhouse post-emergence phytotoxicity (% visual injury) on spring barley
# Protocol: as §1
# [3] = tested on: SINAR = Sinapis arvensis (wild mustard); assay: Greenhouse post-emergence efficacy (% visual injury) on wild mustard; settings: 20-22 d
# Protocol: (§2) The herbicide of formula I-G-A was combined with isoxadifen-ethyl or mefenpyr-diethyl, and applied to spring wheat (TRZAS) and spring barley (HORVS) and the phytotoxicity of the herbicidal composition was measured. In addition, the efficacy of the herbicidal composition on wild mustard (SINAR), wild chamomile (MATCH), wild pansy (VIOTR), shepherd's purse (CAPBP), kochia (KCHSC), lambsquarters (CHEAL), pigweed (AMARE), and Canada thistle (CIRAR) was evaluated. The results for herbicide I-G-A with isoxadifen-ethyl and mefenpyr-diethyl are summarized in Table 7 and Table 8, respectively.
# (§3) Seeds of the desired test plant species were planted in Sun Gro MetroMix® 360 planting mixture, which typically has a pH of 6.0 to 6.8 and an organic matter content of about 30 percent, in plastic pots with a surface area of 103.2 square centimeters (cm^2). When required to ensure good germination and healthy plants, a fungicide treatment and/or other chemical or physical treatment was applied. The plants were grown for 7-36 days (d) in a greenhouse with an approximate 14-hour (h) photoperiod which was maintained at about 18° C. during the day and 17° C. during the night. Nutrients and water were added on a regular basis and supplemental lighting was provided with overhead metal halide 1000-Watt lamps as necessary. The plants were employed for testing when they reached the second or third true leaf stage.
# (§4) Weighed amounts of technical material were dissolved in a volume of 97:3 volume per volume (v/v) acetone/dimethyl sulfoxide (DMSO) to stock solutions. […] Compound requirements are based upon a 12 milliliter (mL) application volume at a rate of 187 liters per hectare (L/ha). Stock solutions of the safeners were prepared following the same procedure. Spray solutions of the safeners and experimental compound mixtures were prepared by adding the stock solutions to the appropriate amount of dilution solution to form a 12 mL spray solution in two-way combinations. Formulated compounds were applied to the plant material with an overhead Mandel track sprayer equipped with 8002E nozzles calibrated to deliver 187 L/ha over an application area of 0.503 square meters (m^2) at a spray height of 18 inches (43 centimeters (cm)) above average plant canopy. Control plants were sprayed in the same manner with the solvent blank.
# (§5) The treated plants and control plants were placed in a greenhouse as described above and watered by sub-irrigation to prevent wash-off of the test compounds. After 20-22 d, the condition of the test plants as compared with that of the control plants was determined visually and scored on a scale of 0 to 100 percent where 0 corresponds to no injury and 100 corresponds to complete kill. Colby's equation was used to determine the herbicidal effects expected from the mixtures.
# [4] = tested on: MATCH = Matricaria recutita (wild chamomile); assay: Greenhouse post-emergence efficacy (% visual injury) on wild chamomile; settings: 20-22 d
# Protocol: as §2, §3, §4, §5
# [5] = tested on: VIOTR = Viola tricolor (wild pansy); assay: Greenhouse post-emergence efficacy (% visual injury) on wild pansy; settings: 20-22 d
# Protocol: as §2, §3, §4, §5
# [6] = tested on: CAPBP = Capsella bursa-pastoris (shepherd's purse); assay: Greenhouse post-emergence efficacy (% visual injury) on shepherd's purse; settings: 20-22 d
# Protocol: as §2, §3, §4, §5
# [7] = tested on: KCHSC = Kochia scoparia (kochia); assay: Greenhouse post-emergence efficacy (% visual injury) on kochia; settings: 20-22 d
# Protocol: as §2, §3, §4, §5
# [8] = tested on: CHEAL = Chenopodium album (lambsquarters); assay: Greenhouse post-emergence efficacy (% visual injury) on lambsquarters; settings: 20-22 d
# Protocol: as §2, §3, §4, §5
# [9] = tested on: AMARE = Amaranthus retroflexus (pigweed); assay: Greenhouse post-emergence efficacy (% visual injury) on pigweed; settings: 20-22 d
# Protocol: as §2, §3, §4, §5
# [10] = tested on: CIRAR = Cirsium arvense (Canada thistle); assay: Greenhouse post-emergence efficacy (% visual injury) on Canada thistle; settings: 20-22 d
# Protocol: as §2, §3, §4, §5
# [11] = safener 20 g ai/ha alone, 20-22 d
# [12] = safener 40 g ai/ha alone, 20-22 d
# [13] = safener 80 g ai/ha alone, 20-22 d
# [14] = herbicide 20 g ae/ha alone, 20-22 d
smiles,measurement,setting,value
"CC1COc2ccccc2N1C(=O)C(Cl)Cl (racemic) [benoxacor, (±)-4-(dichloroacetyl)-3,4-dihydro-3-methyl-2H-1,4-benzoxazine]",Effect (% visual injury) TRZAW Obs,[1]; in vivo,0%
same,Effect (% visual injury) HORVS Obs,[2]; in vivo,0%
"CCOC(=O)C1=NN(c2ccc(Cl)cc2Cl)C(C)(C(=O)OCC)C1 (racemic) [mefenpyr-diethyl, (RS)-1-(2,4-dichlorophenyl)-5-methyl-2-pyrazoline-3,5-dicarboxylate]",Effect (% visual injury) TRZAW Obs,[1]; [11],0%
same,Effect (% visual injury) TRZAW Obs,[1]; [12],0%
same,Effect (% visual injury) TRZAW Obs,[1]; [13],0%
same,Effect (% visual injury) HORVS Obs,[2]; [11],0%
same,Effect (% visual injury) HORVS Obs,[2]; [12],0%
same,Effect (% visual injury) HORVS Obs,[2]; [13],0%
same,Effect (% visual injury) SINAR Obs,[3]; safener 20 g ai/ha alone,0%
same,Effect (% visual injury) SINAR Obs,[3]; safener 40 g ai/ha alone,0%
same,Effect (% visual injury) SINAR Obs,[3]; safener 80 g ai/ha alone,0%
same,Effect (% visual injury) MATCH Obs,[4]; safener 20 g ai/ha alone,0%
same,Effect (% visual injury) MATCH Obs,[4]; safener 40 g ai/ha alone,0%
same,Effect (% visual injury) MATCH Obs,[4]; safener 80 g ai/ha alone,0%
same,Effect (% visual injury) VIOTR Obs,[5]; safener 20 g ai/ha alone,0%
same,Effect (% visual injury) VIOTR Obs,[5]; safener 40 g ai/ha alone,0%
same,Effect (% visual injury) VIOTR Obs,[5]; safener 80 g ai/ha alone,0%
same,Effect (% visual injury) CAPBP Obs,[6]; safener 20 g ai/ha alone,0%
same,Effect (% visual injury) CAPBP Obs,[6]; safener 40 g ai/ha alone,0%
same,Effect (% visual injury) CAPBP Obs,[6]; safener 80 g ai/ha alone,0%
same,Effect (% visual injury) KCHSC Obs,[7]; safener 20 g ai/ha alone,0%
same,Effect (% visual injury) KCHSC Obs,[7]; safener 40 g ai/ha alone,0%
same,Effect (% visual injury) KCHSC Obs,[7]; safener 80 g ai/ha alone,0%
same,Effect (% visual injury) CHEAL Obs,[8]; safener 20 g ai/ha alone,0%
same,Effect (% visual injury) CHEAL Obs,[8]; safener 40 g ai/ha alone,0%
same,Effect (% visual injury) CHEAL Obs,[8]; safener 80 g ai/ha alone,0%
same,Effect (% visual injury) AMARE Obs,[9]; safener 20 g ai/ha alone,0%
same,Effect (% visual injury) AMARE Obs,[9]; safener 40 g ai/ha alone,0%
same,Effect (% visual injury) AMARE Obs,[9]; safener 80 g ai/ha alone,0%
same,Effect (% visual injury) CIRAR Obs,[10]; safener 20 g ai/ha alone,0%
same,Effect (% visual injury) CIRAR Obs,[10]; safener 40 g ai/ha alone,0%
same,Effect (% visual injury) CIRAR Obs,[10]; safener 80 g ai/ha alone,0%
"NC(=O)NS(=O)(=O)c1ccccc1Cl [2-CBSU, N-(aminocarbonyl)-2-chlorobenzenesulfonamide]",Effect (% visual injury) TRZAW Obs,[1]; in vivo,0%
same,Effect (% visual injury) HORVS Obs,[2]; in vivo,0%
CCc1nc(C(=O)O)c(Cl)c(N)c1F [I-G-A],Effect (% visual injury) TRZAW Obs,[1]; [14],25%
same,Effect (% visual injury) HORVS Obs,[2]; [14],13%
same,Effect (% visual injury) SINAR Obs,[3]; herbicide 20 g ae/ha alone,97%
same,Effect (% visual injury) MATCH Obs,[4]; herbicide 20 g ae/ha alone,80%
same,Effect (% visual injury) VIOTR Obs,[5]; herbicide 20 g ae/ha alone,60%
same,Effect (% visual injury) CAPBP Obs,[6]; herbicide 20 g ae/ha alone,100%
same,Effect (% visual injury) KCHSC Obs,[7]; herbicide 20 g ae/ha alone,20%
same,Effect (% visual injury) CHEAL Obs,[8]; herbicide 20 g ae/ha alone,95%
same,Effect (% visual injury) AMARE Obs,[9]; herbicide 20 g ae/ha alone,20%
same,Effect (% visual injury) CIRAR Obs,[10]; herbicide 20 g ae/ha alone,80%
"C=CCN(CC=C)C(=O)C(Cl)Cl [dichlormid, N,N-diallyl-2,2-dichloroacetamide]",Effect (% visual injury) TRZAW Obs,[1]; [11],0%
same,Effect (% visual injury) TRZAW Obs,[1]; [12],0%
same,Effect (% visual injury) TRZAW Obs,[1]; [13],0%
same,Effect (% visual injury) HORVS Obs,[2]; [11],0%
same,Effect (% visual injury) HORVS Obs,[2]; [12],0%
same,Effect (% visual injury) HORVS Obs,[2]; [13],0%
"O=C(O)c1nc(C(Cl)(Cl)Cl)n(-c2ccc(Cl)cc2Cl)n1 [fenchlorazole, 1-(2,4-dichlorophenyl)-5-(trichloromethyl)-1H-1,2,4-triazole-3-carboxylic acid]",Effect (% visual injury) TRZAW Obs,[1]; [11],0%
same,Effect (% visual injury) TRZAW Obs,[1]; [12],0%
same,Effect (% visual injury) TRZAW Obs,[1]; [13],0%
same,Effect (% visual injury) HORVS Obs,[2]; [11],0%
same,Effect (% visual injury) HORVS Obs,[2]; [12],0%
same,Effect (% visual injury) HORVS Obs,[2]; [13],0%
"Clc1cc(Cl)nc(-c2ccccc2)n1 [fenclorim, 4,6-dichloro-2-phenylpyrimidine]",Effect (% visual injury) TRZAW Obs,[1]; in vivo,0%
same,Effect (% visual injury) HORVS Obs,[2]; in vivo,0%
O=C1OC(=O)c2cccc3cccc1c23 [naphthalic anhydride],Effect (% visual injury) TRZAW Obs,[1]; in vivo,0%
same,Effect (% visual injury) HORVS Obs,[2]; in vivo,0%
